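Assay format: 96-well plates, 48-hour exposure. The concentration for 50% growth inhibition is given as GI50. TGI marks complete inhibition of growth.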
Experiments:
Assay in all cases: inhibition of tumour cell growth, NCI panel, 48 h
[1] = test system: RXF 393 renal
[2] = test system: SF-268 CNS
[3] = test system: OVCAR-3 ovarian
[4] = test system: U251 CNS
[5] = test system: UACC-62 melanoma
[6] = test system: SNB-75 CNS
[7] = test system: HS 578T breast
[8] = test system: MDA-MB-231 breast
[9] = test system: BT-549 breast
[10] = test system: T-47D breast

SMILES	TGI [1] [µM]	TGI [2] [µM]	TGI [3] [µM]	TGI [4] [µM]	TGI [5] [µM]	TGI [6] [µM]	GI50 [2] [µM]	GI50 [7] [µM]	TGI [7] [µM]	GI50 [8] [µM]	TGI [8] [µM]	GI50 [5] [µM]	TGI [9] [µM]	TGI [10] [µM]	GI50 [1] [µM]	GI50 [10] [µM]	GI50 [3] [µM]	GI50 [9] [µM]	GI50 [4] [µM]	GI50 [6] [µM]
CN(C)[C@@H]1C(=O)C(C(=O)NCNCCCC(=O)O)=C(O)[C@@]2(O)C(=O)C3=C(O)c4c(O)cccc4[C@@](C)(O)[C@H]3C[C@@H]12	> 100	> 100	> 100	> 100	> 100	–	–	–	–	–	–	–	–	–	–	–	–	–	–	–
Cc1cc(=O)[nH]c(NN2C(Cl)C(=O)C2c2cccc([N+](=O)[O-])c2)n1 (centres undefined)	22.5	> 100	32.3	47.4	42.5	> 100	–	–	–	–	–	–	–	–	–	–	–	–	–	–
N=C(N)c1ccc(-c2ccc(-c3ccc(Cl)cn3)s2)cc1	–	39.3	–	–	3.38	–	9.67	2.05	5.35	1.58	3.02	1.84	–	–	–	–	–	–	–	–
CCN(CC)Cc1ccc2cccnc2c1O	> 100	> 100	11.4	> 100	> 100	12.7	–	–	> 100	–	> 100	–	> 100	–	–	–	–	–	–	–
O=C1c2ccccc2C(=O)c2c(NCCNC(=O)C3CCCN3)ccc(NCCNC(=O)C3CCCN3)c21 (centres undefined)	–	> 100	> 100	> 100	> 100	> 100	–	–	> 100	–	> 100	–	> 100	> 100	–	–	–	–	–	–
CN(C)c1ccc2nc3c(C(=O)O)cc(=O)c(O)c-3oc2c1	76.3	> 100	60.8	> 100	46	60	–	–	> 100	–	> 100	–	42.8	47.4	–	–	–	–	–	–
COc1ccc(-n2c3c(c4cc(O)ccc42)C(=O)c2ccccc2C3=O)cc1	18	14.8	27.2	–	25.6	–	–	–	> 100	–	13.6	–	31.5	> 100	–	–	–	–	–	–
O=C(CC1(O)C(=O)Nc2ccc(Br)cc21)c1ccc(C(=O)NCC2CCC3(CC2)OOC2(CCCCC2)OO3)cc1 (centres undefined)	26.7	36.5	10.4	6.51	29.2	–	6.16	9.26	> 100	5.96	37.1	5.77	32.7	24.4	5.46	2.69	2.13	7.28	2.24	–
CN(C)CCNC(=O)c1cccc2nc3c4ccccc4c4ccccc4c3nc12	4.65	0.632	7	4.56	5.51	8.85	–	–	–	–	3.32	–	6.25	34.1	–	–	–	–	–	–
Cc1ccc(C)c(/C(=N\N=C(N)N)C2CC2)c1	> 100	> 100	> 100	36.2	> 100	> 100	–	–	> 100	–	> 100	–	95.3	> 100	–	–	–	–	–	–
C[n+]1cccc(/C=C/c2ccc3cccc(O)c3n2)c1	> 100	> 100	> 100	> 100	> 100	> 100	–	–	> 100	–	> 100	–	> 100	> 100	–	–	–	–	–	–
C[C@H]1CCC/C=C/[C@@H]2C[C@H](O)C[C@H]2[C@H](O)[C@@H](S(=O)CCN)CC(=O)O1 (some centres undefined)	0.0456	> 100	–	> 100	> 82	> 25.1	–	0.207	> 100	0.0234	0.0613	0.0197	> 100	0.544	< 0.0141	0.116	0.0495	0.0377	0.0538	< 0.0231
COc1cnc2c(c1)C(=O)c1c-2n(CCCN2CCNCC2)c(=O)c2cc(Cl)ccc12	–	2.63	2.83	–	–	1.69	1.07	–	–	–	–	–	–	50.3	–	8.98	1.43	–	–	0.291
Oc1cc(O)cc(/C=C/c2ccc(O)c(O)c2)c1	45.7	56.3	> 100	42.8	15	51.7	–	–	–	–	–	–	–	–	–	–	–	–	–	–
COc1cc2ccc1-c1cc(ccc1O)CC1c3cc4c(cc3CCN1C)Oc1c(OC)cc3c(c1O4)C(C2)N(C)CC3 (centres undefined)	3.24	3.52	3.93	3.07	3.44	3.52	–	–	–	–	–	–	–	–	–	–	–	–	–	–
CCOC(=O)c1c2c(c(O)c3ccccc3c(O)n(-c3ccc(C)cc3)c1C)C(=O)C=CC2=O	55.7	> 100	35.2	52.9	71.7	43.6	–	–	66	–	55.7	–	71.2	39.4	–	–	–	–	–	–
CC[C@H](Nc1nc(N)nc(N)c1Cl)c1nc2cccc(NCc3ccc(C(=O)NO)cc3)c2c(=O)n1-c1ccccc1	1.75	3.69	–	3.08	2.81	–	1.66	2.62	10.9	1.55	3.65	1.41	5.69	10.7	0.403	2.15	–	2.13	1.51	–
COc1ccc(CNc2nc(NCc3ccc(OC)cc3)nc(NC(C)C)n2)cc1	38.5	50	10.3	> 100	31.1	> 100	–	–	> 100	–	–	–	–	> 100	–	–	–	–	–	–
Cc1c2ccnc(-c3ccccc3)c2cc2c1[nH]c1ccccc12	6.22	32.9	8.99	7.76	5.48	8.16	–	–	–	–	–	–	–	–	–	–	–	–	–	–
COc1cc2c(cc1OC)C(Cl)C(c1ccc(Cl)cc1)=C2Cl (centres undefined)	–	–	30.1	26.6	40.4	36.2	–	–	–	–	–	–	–	–	–	–	–	–	–	–
c1ccc2c[n+](CCCCCCCCCC[n+]3ccc4ccccc4c3)ccc2c1	> 10	> 10	> 10	> 10	> 10	> 10	–	–	> 10	–	> 10	–	> 10	> 10	–	–	–	–	–	–

From PubChem BioAssay (NCI)
